Laboratory results taken from the supplement of paper PMC11061612.

Columns and labels:
Test in all cases: Bliss excess, mean over the matrix (fraction); higher = more synergy
[1] = tested on: Ca-Ski (Cervical Carcinoma)
In short: (§1)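 Cell lines grown in DMEM/F12 or RPMI with 10% FBS were plated in 1536-well plates and held 24 hours at 37°C, 5% CO2 before 72 hours of exposure to two-drug dose matrices, with DMSO typically at 0.2%. CellTiter-Glo 2.0 luminescence gave viability, which was converted to inhibition. Vehicle wells were set to 0 and blank wells to 1. Combination Emax is the second-highest inhibition in the matrix, and Bliss excess is the observed combination effect minus the expected EA + EB − EA·EB, where EA and EB are the single-agent effects.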

[2] = tested on: SNU-387 (Hepatocellular Carcinoma)
In short: as §1

[3] = tested on: KMRC-1 (Kidney Carcinoma)
In short: as §1

[4] = tested on: NCI-H1993 (Lung Adenocarcinoma)
In short: as §1

[5] = tested on: SW982 (Other Solid Carcinomas)
In short: as §1

[6] = tested on: SK-LU-1 (Lung Adenocarcinoma)
In short: as §1

[7] = tested on: HAL-01 (B-Lymphoblastic Leukemia)
In short: as §1

[8] = tested on: SW872 (Other Solid Carcinomas)
In short: as §1

[9] = tested on: MV-4-11 (Acute Myeloid Leukemia)
In short: as §1

[10] = tested on: EFO-21 (Ovarian Carcinoma)
In short: as §1

[11] = tested on: KGN (Other Solid Carcinomas)
In short: as §1

[12] = tested on: MOG-G-UVW (Low Grade Glioma)
In short: as §1

[13] = tested on: KOPN-8 (B-Lymphoblastic Leukemia)
In short: as §1

[14] = tested on: CADO-ES1 (Ewing's Sarcoma)
In short: as §1

Hey (Ovarian Carcinoma) = tested on: Hey (Ovarian Carcinoma)
In short: as §1

[15] = tested on: NCI-H1092 (Small Cell Lung Carcinoma)
In short: as §1

[16] = tested on: HCC2998 (Colorectal Carcinoma)
In short: as §1

[17] = tested on: HCC1937 (Breast Carcinoma)
In short: as §1

[18] = tested on: EJM (Plasma Cell Myeloma)
In short: as §1

EW-1 (Ewing's Sarcoma) = tested on: EW-1 (Ewing's Sarcoma)
In short: as §1

| Compound | Bliss excess [1] | Bliss excess [2] | Bliss excess [3] | Bliss excess [4] | Bliss excess [5] | Bliss excess [6] | Bliss excess [7] | Bliss excess [8] | Bliss excess [9] | Bliss excess [10] | Bliss excess [11] | Bliss excess [12] | Bliss excess [13] | Bliss excess [14] | Bliss excess (Hey (Ovarian Carcinoma)) | Bliss excess [15] | Bliss excess [16] | Bliss excess [17] | Bliss excess [18] | Bliss excess (EW-1 (Ewing's Sarcoma)) |
| --- | --- | --- | --- | --- | --- | --- | --- | --- | --- | --- | --- | --- | --- | --- | --- | --- | --- | --- | --- | --- |
| C=CCn1c(=O)c2cnc(Nc3ccc(N4CCN(C)CC4)cc3)nc2n1-c1cccc(C(C)(C)O)n1 [AZD1775] + CCc1c2c(nc3ccc(O)cc13)-c1cc3c(c(=O)n1C2)COC(=O)[C@]3(O)CC [SN-38] (first compound max 1 µM, partner max 0.3 µM) | 0.0285 | -0.0303 | -0.0817 | 0.0354 | -0.0158 | -0.133 | -0.0249 | -0.0641 | -0.0281 | -0.0193 | -0.114 | 0.0228 |  |  |  |  |  |  |  |  |
| C=CCn1c(=O)c2cnc(Nc3ccc(N4CCN(C)CC4)cc3)nc2n1-c1cccc(C(C)(C)O)n1 [AZD1775] + Nc1ccn([C@@H]2O[C@H](CO)[C@@H](O)C2(F)F)c(=O)n1 [Gemcitabine] (first compound max 1 µM, partner max 0.3 µM) | 0.0644 | -0.0035 | -0.0495 | -0.0021 | -0.0248 | -0.0837 | -0.0026 | 0.0462 | 0.0238 | -0.0653 | 0.0009 | 0.0183 |  |  |  |  |  |  |  |  |
| CN(CCO)CC[C@H](CSc1ccccc1)Nc1ccc(S(=O)(=O)NC(=O)c2ccc(N3CCC([C@@H](O)c4ccccc4-c4ccc(Cl)cc4)CC3)cc2)cc1S(=O)(=O)C(F)(F)F [AZD4320] + CS(=O)(=O)CCNCc1ccc(-c2ccc3ncnc(Nc4ccc(OCc5cccc(F)c5)c(Cl)c4)c3c2)o1 [Lapatinib] (first compound max 1 µM, 7x7, partner max 10 µM) | 0.127 | 0.0496 | 0.0223 | 0.0682 | 0.0799 | -0.0415 | 0.193 | 0.0097 | 0.018 | -0.0104 | -0.0448 | 0.0193 |  |  |  |  |  |  |  |  |
| Cc1c2c(nn1C)CSCc1cc(n(C)n1)CSc1cc(c3ccccc3c1)OCCCc1c(C(=O)O)n(C)c3c-2c(Cl)ccc13 [AZD5991] + CC(=O)O[C@H]1C(=O)[C@@]2(C)[C@H]([C@H](OC(=O)c3ccccc3)[C@]3(O)C[C@H](OC(=O)[C@H](O)[C@@H](NC(=O)c4ccccc4)c4ccccc4)C(C)=C1C3(C)C)[C@]1(OC(C)=O)CO[C@@H]1C[C@@H]2O [Paclitaxel] (first compound max 1 µM, 7x7, partner max 3 µM) | 0.0422 | 0.0019 | 0.0286 | -0.037 | -0.0039 | -0.0288 | -0.0179 | 0.018 | 0.0129 | 0.0151 | 0.0025 | 0.0217 |  |  |  |  |  |  |  |  |
| Cc1c2c(nn1C)CSCc1cc(n(C)n1)CSc1cc(c3ccccc3c1)OCCCc1c(C(=O)O)n(C)c3c-2c(Cl)ccc13 [AZD5991] + CS(=O)(=O)CCNCc1ccc(-c2ccc3ncnc(Nc4ccc(OCc5cccc(F)c5)c(Cl)c4)c3c2)o1 [Lapatinib] (first compound max 1 µM, 7x7, partner max 10 µM) | 0.0164 | -0.028 | -0.0282 |  | -0.0151 | -0.0423 | 0.162 | 0.0129 | 0.0343 | 0.0347 | -0.0049 | -0.0158 |  |  |  |  |  |  |  |  |
| Cc1c2c(nn1C)CSCc1cc(n(C)n1)CSc1cc(c3ccccc3c1)OCCCc1c(C(=O)O)n(C)c3c-2c(Cl)ccc13 [AZD5991] + Nc1ccn([C@@H]2O[C@H](CO)[C@@H](O)C2(F)F)c(=O)n1 [Gemcitabine] (first compound max 1 µM, 7x7, partner max 0.3 µM) | 0.0354 | -0.0021 | -0.0638 | -0.0064 | -0.0594 | -0.0518 | 0.0025 | -0.0066 | 0.0035 | -0.0204 | -0.0457 | 0.0085 |  |  |  |  |  |  |  |  |
| C[C@@H]1COCCN1c1cc(C2([S@](C)(=N)=O)CC2)nc(-c2ccnc3[nH]ccc23)n1 [AZD6738] + C1CC(C1)(C(=O)[O-])C(=O)[O-].N.N.[Pt+2] [Carboplatin] (first compound max 10 µM, 7x7, partner max 10 µM) | 0.0041 | -0.0308 | -0.0289 | -0.0211 | -0.0453 | -0.0088 | -0.0435 | 0.0087 | -0.0339 | -0.0606 | -0.0084 | -0.0044 |  |  |  |  |  |  |  |  |
| C[C@@H]1COCCN1c1cc(C2([S@](C)(=N)=O)CC2)nc(-c2ccnc3[nH]ccc23)n1 [AZD6738] + Nc1ccn([C@@H]2O[C@H](CO)[C@@H](O)C2(F)F)c(=O)n1 [Gemcitabine] (first compound max 10 µM, 7x7, partner max 0.3 µM) | 0.0982 | 0.0597 | 0.0601 | -0.0098 | 0.0352 | -0.0668 | -0.0031 | 0.0769 | 0.0067 | 0.0847 | 0.0065 | 0.0856 |  |  |  |  |  |  |  |  |
| C[C@@H](Nc1cc(F)cc(F)c1)c1cc(C(=O)N(C)C)cc2c(=O)cc(N3CCOCC3)oc12 [AZD8186] + C1CN(CCC1(C(=O)N[C@@H](CCO)C2=CC=C(C=C2)Cl)N)C3=NC=NC4=C3C=CN4 [AZD5363] (first compound max 10 µM, 7x7, partner max 10 µM) | -0.0032 | -0.0959 | -0.0524 | 0.0154 | -0.0763 | 0.02 | -0.0657 | 0.0068 | 0.0103 | -0.0376 | 0.0547 | -0.0364 |  |  |  |  |  |  |  |  |
| C[C@@H](Nc1cc(F)cc(F)c1)c1cc(C(=O)N(C)C)cc2c(=O)cc(N3CCOCC3)oc12 [AZD8186] + CC(=O)c1c(C)c2cnc(Nc3ccc(N4CCNCC4)cn3)nc2n(C2CCCC2)c1=O [Palbociclib] (first compound max 10 µM, 7x7, partner max 10 µM) | -0.0285 | -0.0459 | -0.0156 | 0.0847 | 0.0551 | 0.0599 | -0.0022 | 0.0874 | 0.0769 | -0.0175 | 0.0548 | 0.11 |  |  |  |  |  |  |  |  |
| C[C@@H](Oc1cc(-c2cnn(C3CCNCC3)c2)cnc1N)c1c(Cl)ccc(F)c1Cl [Crizotinib] + CC1=C(C(=CC=C1)Cl)NC(=O)C2=CN=C(S2)NC3=CC(=NC(=N3)C)N4CCN(CC4)CCO [Dasatinib] (first compound max 10 µM, 7x7, partner max 2 µM) | 0.0454 | 0.0371 | 0.0644 | -0.0147 | 0.0386 | 0.02 | -0.0172 | 0.041 | 0.0161 | 0.0054 | -0.0204 | 0.182 |  |  |  |  |  |  |  |  |
| C[C@@H](Oc1cc(-c2cnn(C3CCNCC3)c2)cnc1N)c1c(Cl)ccc(F)c1Cl [Crizotinib] + Cn1cnc2c(F)c(Nc3ccc(Br)cc3Cl)c(C(=O)NOCCO)cc21 [Selumetinib] (first compound max 10 µM, 7x7, partner max 10 µM) | 0.0464 | 0.0212 | -0.0191 | 0.0034 | 0.0165 | -0.0531 | -0.0267 | -0.0107 | -0.0232 | -0.0233 | -0.086 | 0.104 |  |  |  |  |  |  |  |  |
| CC1(C)CCC(CN2CCN(c3ccc(C(=O)NS(=O)(=O)c4ccc(NCC5CCOCC5)c([N+](=O)[O-])c4)c(Oc4cnc5[nH]ccc5c4)c3)CC2)=C(c2ccc(Cl)cc2)C1 [Venetoclax] + C[C@@H]1COCCN1C2=NC(=NC(=C2)C3(CC3)[S@](=N)(=O)C)C4=C5C=CNC5=NC=C4 [AZD6738] (first compound max 1 µM, 7x7, partner max 10 µM) | -0.006 | -0.0363 | -0.0365 | -0.0366 | -0.031 |  | 0.106 | 0.0001 | -0.006 | -0.0351 | -0.0601 | -0.0672 | 0.0289 | 0.0118 | -0.0378 | 0.0739 | -0.0423 | -0.0587 | -0.0176 | -0.0224 |
| CC1(C)CCC(CN2CCN(c3ccc(C(=O)NS(=O)(=O)c4ccc(NCC5CCOCC5)c([N+](=O)[O-])c4)c(Oc4cnc5[nH]ccc5c4)c3)CC2)=C(c2ccc(Cl)cc2)C1 [Venetoclax] + C[C@@H](Nc1cc(F)cc(F)c1)c1cc(C(=O)N(C)C)cc2c(=O)cc(N3CCOCC3)oc12 [AZD8186] (first compound max 1 µM, 7x7, partner max 3 µM) | -0.0259 | -0.0264 | -0.0198 | 0.0036 | -0.0813 |  | 0.0246 | -0.0247 | 0.0641 | -0.0441 | -0.0296 | -0.0111 | -0.0088 | 0.117 | -0.0286 | 0.0667 | -0.0317 | -0.0179 | 0.0077 | -0.001 |
| CC1(C)CCC(CN2CCN(c3ccc(C(=O)NS(=O)(=O)c4ccc(NCC5CCOCC5)c([N+](=O)[O-])c4)c(Oc4cnc5[nH]ccc5c4)c3)CC2)=C(c2ccc(Cl)cc2)C1 [Venetoclax] + Cc1cc2ncnn2cc1Nc1ncc2c(n1)n(C1CCOCC1)c(=O)n2C [AZD7648] (first compound max 1 µM, 7x7, partner max 10 µM) | -0.0061 | -0.0413 | -0.0514 | -0.0583 | 0.0103 |  | -0.022 | -0.0599 | 0.0477 | -0.0212 | -0.0339 | -0.0482 | 0.0037 | -0.0223 | -0.0604 | 0.0303 | -0.0314 | -0.0733 | 0.0292 | -0.008 |
| CC1(C)CCC(CN2CCN(c3ccc(C(=O)NS(=O)(=O)c4ccc(NCC5CCOCC5)c([N+](=O)[O-])c4)c(Oc4cnc5[nH]ccc5c4)c3)CC2)=C(c2ccc(Cl)cc2)C1 [Venetoclax] + Cn1cnc2c(F)c(Nc3ccc(Br)cc3Cl)c(C(=O)NOCCO)cc21 [Selumetinib] (first compound max 1 µM, 7x7, partner max 3 µM) | -0.0038 | -0.0601 | -0.0344 | -0.0358 | -0.0722 |  | 0.0009 | -0.0158 | -0.0022 | -0.069 | -0.0406 | 0.0564 | 0.113 | -0.0596 | -0.0238 | -0.0691 | -0.0065 | -0.0392 | -0.006 | -0.0483 |
